The values that follow come from patent US20240285513A1, “TOPICAL COMPOSITION AGAINST FINE LINES AND WRINKLES” (priority 2021, published 2024).

Values joined by “and” are separate entries in the source; they are usually repeats but may differ in a detail not shown here. Equal values may be shown once. Marks after values point to notes of the source that are not given here.

Holding throughout (details): human
Test [1] deals with fine lines and wrinkles, glabella area. The test is described as follows: In vivo clinical study (Example 6): clinical grading of fine lines and wrinkles.
Test [2] shares this test system. The test is described as follows: Comparative in vivo clinical study (Example 7): clinical grading of fine lines and wrinkles. The text has this:
(§1) The purpose of the comparative in vivo clinical study was to evaluate the efficacy of a combination of the three extracts for muscle relaxation and wrinkle reduction over four weeks of twice-daily application on Experimental Group 1 participants using a micro-roller (n=33) versus application on Experimental Group 2 participants without using a micro-roller (n=30). The combination of the three extracts was placed in a dermatologically acceptable vehicle as the test product. The dermatologically acceptable vehicle was designed to test the efficacy of the combination of the three extracts when applied with a micro-roller versus application without a micro-roller. Study participants in Experimental Group 1 used a 1.0 mm microroller. Study participants applied the composition containing the three extracts between their eyebrows in the morning and the evening after cleansing their face with a personal cleanser. For Experimental Group 1, study participants used the micro-roller 3 times per week in the evenings by rolling the micro-roller back and forth 4 to 5 times between eyebrows changing directions with each pass. […] The amounts of each extract used in the dermatologically acceptable vehicle was Rosmarinus officinalis leaf extract at 1 wt. %, Lavendula stoechas extract at 2 wt. %, and Acmella oleracea extract at 2 wt. %. […]

Test [3] relates to muscle contraction in the glabella region. The test is described as follows: In vivo clinical study (Example 6): electromyography (EMG) muscle response.
Test [4] has the same test system. In words: Comparative in vivo clinical study (Example 7): EMG muscle response with or without micro-roller.
From the text: as §1

Regarding onabotulinumtoxinA [BoTox], the “% Clinical Improvement of Wrinkles” value is 31%* and 35%* in test [1]; 31%* and 35%* in test [2]. Besides, the “% EMG Response (AUC)” value was 58%* and 40%* in test [3]; 58%* and 40%* in test [4].
